In the NIST ThermoML archive (doi:10.1016/j.jct.2015.05.020):
Numbers after ± are expanded uncertainties.

Columns and labels:
[1] = Crystal; visual observation
[2] = Molar enthalpy of transition or fusion; details: Crystal; DSC

**Q.** What does the source list for `COc1cc(C=O)ccc1O` [vanillin]?
**A.** Normal melting temperature [1]: 81.60 ± 1.1 °C; Molar enthalpy of transition or fusion [2]: 24.8 ± 1.7 kJ/mol
